In patent publication US4775692A, “2,5,6,7-tetranor-4,8-inter-m-phenylene PGI2 derivatives” (Toray Industries, Inc., priority 1986, dated 1988):
≈ marks a conversion by molar mass, not a printed value. Read-outs that look alike come from different tables or passages of the source.

Tests used:
[1] = test system: gastric acid secretion; test: Inhibiting effect of gastric acid secretion, pylorus-ligated rat (Shay); format: in vivo; settings: pylorus ligation, injected into duodenum, 5 hours
Method: (§1) Inhibiting effect of gastric acid secretion
Under anesthesia by ether, the abdomen of the rat was incised in its median and a pylorus was ligated with silk thread according to Shay (Gastroenterology 5, 43 (1945)). Simultaneously, the compound was injected into a duodenum of the rat and then the incision was closed.
Five hours later, the median-incision of the abdomen was again performed and the esophargus was ligated and then the whole stomach was removed.
The stomach was cut along a greater curvature and the contents thereof was transferred into a graduated centrifuge tube. After centrifugation at 3,000 rpm for 10 min., a volume of a gastric juice was measured and a part of its supernatant was titrated to pH 7 with 0.1N NaOH using a pH-stat (Radio meter).
The mean dose of the compounds which may reduce the volume of gastric juice (ml) and acidity (mEq/ml) of a group of five animals to 50% of that of the controls were designated respectively as ED50.

[2] = test system: gastric acid secretion; test: Inhibiting effect of gastric acid secretion, perfused stomach, pentagastrin-stimulated (Ghosh & Schild); format: in vivo, male SD rat; settings: urethane-anesthetized SD rat, pentagastrin 0.05 μg/kg/min, injected through femoral vein; ratio of area index to that of PGE2
Method: as §1
A male SD rat was incised in the abdomen under anesthesia by urethane and the lumen of a stomach was perfused with a physiolosical saline solution through a double-cannula inserted into a lumen of the stomach. A pH of a draining gastric acid was monitored using a pH-meter (M. Ghosh, H. Schild, Br. J. Pharmacol. 13, 54 (1958)). The secretion of gastric acid was stimulated by a continuous infusion of the pentagastrin at a rate of 0.05 μg/kg/min. When the pH of gastric acid became stable value of about 4, the compound was injected through a femoral vein. As an index of the inhibiting effect of gastric acid secretion by the compound was calculated from the area surrounded by the curve drawn by the time course of the pH of gastric acid, from the point increase by the injection of the compound and to the point it came back to baseline. The index thus obtained was compared to that of PGE2 and a ratio therebetween was shown in Table 3, as a relative effect of the compound.

[3] = test system: corpus of stomach; test: Gastric cytoprotection effect (lesion length / ulcer index after oral 0.2N NaOH); format: in vivo; settings: 1 h, 30 min before oral 0.2N NaOH, lesion measured one hour later, read-out: Gastric cytoprotection effect ED50 (dose reducing the sore to 50% of control)
Source text: Gastric cytoprotection effect
Gastric cytoprotection effect was studied according to the method by A. Robert (Gastroenterology, 77(3), 443, (1979)). Thirty min. after oral administration of the compound according to the invention, 0.2N NaOH was orally applied to the animals.
One hour later, the animals were killed under anesthesia by chloroform. The stomach was removed and fixed in a solution of 5% formalin. After fixation, the stomach was cut along the greater curvature. A total length of the lesion appearing on the corpus of stomach was then measured and served as an ulcer index.
The dose of the compound which may reduce the sore to 50% of that of the control was designated as ED50.
The gastric cytoprotection effects of the compounds according to the invention, which is thus represented by ED50, are summarized in Table 1.

[4] = test system: platelet aggregation; test: Inhibiting effect of platelet aggregation (ADP-induced, human platelet-rich plasma); format: cell-based; settings: human PRP, compound added one minute before ADP
Method: Inhibiting effect of platelet aggregation
The blood taken from a human median cubital vein was centrifuged at 800 rpm for 10 min. and a supernatant thereof was used as a platelet-rich plasma (PRP). An aliquot of PRP thus obtained was put into a small tube, to which […] (ADP) was added to induce platelet aggregation. The extent of aggregation was determined by detecting a change in turbidity of the aliquot by an apparatus for measuring platelet aggregation (Rika-Denki, Tokyo). The compound was added one minute before the addition of ADP. The concentration of the compound which may reduce the platelet aggregation, 50% of the control was designated as IC50.

[5] = test system: blood pressure of the carotid; test: Hypotensive effect (carotid blood pressure, anesthetized rat); format: in vivo; settings: chloralose-anesthetized Wistar male rat, injected via catheter connected to femoral artery; read-out: Hypotensive effect ED25 (dose reducing blood pressure by 25 mmHg)
Method: A catheter was inserted to a carotid of the Wistar male rat under chloralose anesthesia. Another end of the catheter was connected to a polygraph with a pressure-transducer to detect a blood pressure of the carotid. The compound was injected via catheter connected to a femoral artery. The dose of the compound which may reduce the blood pressure in an amount of 25 mmHg was designated as ED25.

[6] = test system: peripheral blood vessel; settings: cited from earlier work
[7] = converted to 6-oxo PGF1α; cited from earlier work
[8] = cited from earlier work
[9] = test system: gastric acid secretion; settings: cited from earlier work
[10] = test system: platelet aggregation; settings: cited from earlier work
[11] = acidity (mEq/ml) to 50% of controls, read-out: Inhibiting effect of gastric acid secretion ED50, Acidity
[12] = volume (ml) to 50% of controls, read-out: Inhibiting effect of gastric acid secretion ED50, Volume of the gastric juice

Row | Structure (SMILES) | ED50 [1, 11] [µg/kg] | ED50 [1, 12] [µg/kg] | Inhibiting effect of gastric acid secretion, Relative effect (PGE2 = 1) [2] | ED50 [3] [µg/kg] | IC50 [4] [ng/mL] | ED (25 mmHg) [5] [µg/kg] | peripheral blood vessel-dilating activity [6] | stability in neutral aqueous solutions [7] | duration of physiological activities in vivo [8] | stability in vivo [8] | gastric acid secretion-inhibiting activity [9] | platelet aggregation-inhibiting activity [10]
1 | O=C(O)COc1cccc2c1O[C@H]1C[C@@H](O)[C@H](/C=C/[C@@H](O)c3cccc(F)c3)[C@@H]21 (relative stereo) [Compound 274, 15-(m-fluorophenyl)-2,5,6,7,16,17,18,19,20-nonanor-4-oxa-4,8-inter-m-phenylene PGI2] | 880 | 260 | 12 | 9.6 | 1.35 (≈ 3.37 nM) | 0.053 |  |  |  |  |  | 
2 | O=C(O)COc1cccc2c1O[C@H]1C[C@@H](O)[C@H](/C=C/[C@@H](O)c3cccc(C(F)(F)F)c3)[C@@H]21 (relative stereo) [Compound 278, 15-(m-trifluoromethylphenyl)-2,5,6,7,16,17,18,19,20-nonanor-4-oxa-4,8-inter-m-phenylene PGI2] | 1100 | 630 | 6.9 | 3.1 | 0.79 (≈ 1.75 nM) | 0.11 |  |  |  |  |  | 
3 | O=C(O)COc1cccc2c1O[C@H]1C[C@@H](O)[C@H](/C=C/[C@@H](O)c3ccccc3Cl)[C@@H]21 (relative stereo) [Compound 281, 15-(o-chlorophenyl)-2,5,6,7,16,17,18,19,20-nonanor-4-oxa-4,8-inter-m-phenylene PGI2] | 500 | 460 | 10 | 2.4 | 0.82 (≈ 1.97 nM) | 0.14 |  |  |  |  |  | 
4 | O=C(O)COc1cccc2c1O[C@H]1C[C@@H](O)[C@H](/C=C/[C@@H](O)c3cccc(Cl)c3)[C@@H]21 (relative stereo) [Compound 285, 15-(m-chlorophenyl)-2,5,6,7,16,17,18,19,20-nonanor-4-oxa-4,8-inter-m-phenylene PGI2] | 1200 | 880 | 4.1 | 3.5 | 0.23 (≈ 0.552 nM) | 0.055 |  |  |  |  |  | 
5 | O=C(O)COc1cccc2c1O[C@H]1C[C@@H](O)[C@H](/C=C/[C@@H](O)c3ccc(Cl)cc3)[C@@H]21 (relative stereo) [Compound 289, 15-(p-chlorophenyl)-2,5,6,7,16,17,18,19,20-nonanor-4-oxa-4,8-inter-m-phenylene PGI2] | 970 | 430 | 17 | 4 | 0.74 (≈ 1.78 nM) | 0.084 |  |  |  |  |  | 
6 | CCCOCC(C)(C)[C@H](O)/C=C/[C@@H]1[C@H]2c3cccc(OCC(=O)O)c3O[C@H]2C[C@H]1O (relative stereo) [Compound 309, 16,16-Dimethyl-20a-homo-2,5,6,7-tetranor-4,18-dioxa-4,8-inter-m-phenylene PGI2] | 2010 | 805 | 33 | 7.47 | 72 (≈ 171 nM) | 0.3 |  |  |  |  |  | 
7 | CC#CCC(C)[C@H](O)/C=C/[C@@H]1[C@H]2c3cccc(OCC(=O)O)c3O[C@H]2C[C@H]1O (relative stereo) [Compound 321, 16-Methyl-2,5,6,7-tetranor-4-oxa-18,18,19,19-tetradehydro-4,8-inter-m-phenylene PGI2] | 320 | 120 | 41 | 0.5 | 0.33 (≈ 0.854 nM) | 0.22 |  |  |  |  |  | 
8 | CCCCC[C@H](O)/C=C/[C@@H]1[C@H]2C/C(=C/CCCC(=O)O)O[C@H]2C[C@H]1O [PGI2, Prostaglandin I2] |  |  |  |  |  |  | potent | extremely unstable | only short duration | unstable in vivo | potent | potent
